Measurements as given in US11332459B2 (TEIJIN PHARMA LIMITED, priority 2017, dated 2022).
Where a name gives a salt, the structure may show the parent alone.

What follows are compounds tested against T1, human TRPC6 (Homo sapiens, UniProt Q9Y210) (assay: TRPC6 calcium flux assay (FLIPR, OAG-stimulated calcium influx)). Settings: HEK293 cells stably transfected with human TRPC6, read-out: hTRPC6 Potency.
T1 construct: expressed in transfected cells
T1 sequence (Q9Y210 1-931): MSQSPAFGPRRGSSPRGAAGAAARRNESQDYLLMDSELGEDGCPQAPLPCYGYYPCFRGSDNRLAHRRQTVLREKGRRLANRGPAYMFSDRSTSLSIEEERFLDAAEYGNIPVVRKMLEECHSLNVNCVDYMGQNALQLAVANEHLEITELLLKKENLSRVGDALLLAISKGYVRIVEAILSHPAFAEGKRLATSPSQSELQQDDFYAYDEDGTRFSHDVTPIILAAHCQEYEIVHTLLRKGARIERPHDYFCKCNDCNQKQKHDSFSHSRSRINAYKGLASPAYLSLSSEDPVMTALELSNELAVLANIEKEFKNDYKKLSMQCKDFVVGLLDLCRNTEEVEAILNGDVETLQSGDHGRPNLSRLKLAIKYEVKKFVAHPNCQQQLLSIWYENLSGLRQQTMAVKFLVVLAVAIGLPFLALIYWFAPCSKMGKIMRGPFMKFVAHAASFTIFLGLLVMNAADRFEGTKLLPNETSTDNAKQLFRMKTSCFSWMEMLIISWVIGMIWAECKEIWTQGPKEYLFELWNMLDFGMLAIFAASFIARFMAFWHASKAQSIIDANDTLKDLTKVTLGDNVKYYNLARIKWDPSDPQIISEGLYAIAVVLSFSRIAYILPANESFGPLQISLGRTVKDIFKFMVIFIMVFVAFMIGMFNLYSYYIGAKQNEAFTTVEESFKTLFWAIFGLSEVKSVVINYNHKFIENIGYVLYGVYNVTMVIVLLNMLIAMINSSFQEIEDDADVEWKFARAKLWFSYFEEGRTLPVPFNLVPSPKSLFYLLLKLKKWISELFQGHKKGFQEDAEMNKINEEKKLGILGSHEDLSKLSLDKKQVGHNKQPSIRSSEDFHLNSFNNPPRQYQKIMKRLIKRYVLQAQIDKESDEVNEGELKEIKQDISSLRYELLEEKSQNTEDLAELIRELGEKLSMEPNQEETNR
Assay type: cell-based
How it was run: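 HEK293 cells stably expressing human TRPC6, loaded with calcium dye 90–120 min at RT, then given compound for 25 min before OAG (50 uM final, 0.5% DMSO) in HEPES buffer pH 7.2 with 2 mM CaCl2. Background-subtracted FLIPR peak over 180 s normalized to OAG vs buffer; IC50 from dose plot.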

Compound | IC50
CNC(=O)Cn1c(N2CC[C@@H](F)[C@H](N)C2)nc2cc(F)c(F)cc21 [Example 275, 2-(2-((3R,4R)-3-amino-4-fluoro-1-piperidinyl)-5,6-difluoro-1H-benzimidazol-1-yl)-N-methylacetamide] | 0.32 nM
N#Cc1ccc(Cn2c(N3CCC(F)(F)[C@H](N)C3)nc3c(Cl)cccc32)cc1 [Example 407, (R)-4-((2-(3-amino-4,4-difluoropiperidin-1-yl)-4-chloro-1H-benzo[d]imidazol-1-yl)methyl)benzonitrile] | 5.85 nM
N[C@@H]1CN(c2nc3cc(F)c(F)cc3n2Cc2ccccc2Cl)CC[C@H]1F [Example 354, (3R,4R)-1-(1-(2-chlorobenzyl)-5,6-difluoro-1H-benzimidazol-2-yl)-4-fluoro-3-piperidinamine] | 133 nM
N#Cc1ccc(Cn2c(N3CCC(F)(F)[C@H](N)C3)nc3ccc(C#N)cc32)nc1 [Example 55, (R)-2-(3-amino-4,4-difluoropiperidin-1-yl)-1-((5-cyanopyridin-2-yl)methyl)-1H-benzo[d]imidazole-6-carbonitrile] | 3.97 nM
N#Cc1ccc(Cn2c(N3CC[C@@H](F)[C@H](N)C3)nc3cc(F)cc(F)c32)nc1 [Example 64, 6-((2-((3R,4R)-3-amino-4-fluoropiperidin-1-yl)-5,7-difluoro-1H-benzo[d]imidazol-1-yl)methyl)nicotinonitrile] | 132 nM
N[C@@H]1CN(c2nc3cc(F)c(F)cc3n2CC(=O)N2CCC3CCCCC3C2)CC[C@H]1F (mixture of isomers) [Example 523, 2-(2-((3R,4R)-3-amino-4-fluoropiperidin-1-yl)-5,6-difluoro-1H-benzo[d]imidazol-1-yl)-1-(octahydroisoquinolin-2(1H)-yl)ethan-1-one] | 988 nM
N#Cc1ccc(Cn2c(N3CC[C@@H](F)[C@H](N)C3)nc3cc(C#N)ccc32)cc1 [Example 159, 2-((3R,4R)-3-amino-4-fluoro-1-piperidinyl)-1-(4-cyanobenzyl)-1H-benzimidazole-5-carbonitrile] | 16.4 nM
N#Cc1ccc(Cn2c(N3CCC[C@](N)(C(N)=O)C3)nc3ccccc32)nc1 [Example 103, (R)-3-amino-1-(1-((5-cyanopyridin-2-yl)methyl)-1H-benzo[d]imidazol-2-yl)piperidine-3-carboxamide] | > 3750 nM
N#Cc1cnc(Cn2c(N3CCC(F)(F)[C@H](N)C3)nc3ccccc32)cn1 [Example 199] | 28.1 nM
N[C@@H]1CN(c2nc3ccc(F)cc3n2CC(=O)N[C@@H]2CCOC2)CC[C@H]1F [Example 676, 2-(2-((3R,4R)-3-amino-4-fluoropiperidin-1-yl)-6-fluoro-1H-benzo[d]imidazol-1-yl)-N-((R)-tetrahydrofuran-3-yl)acetamide] | > 3750 nM
N#Cc1ccc(Cn2c(N3CCC(F)(F)[C@H](NCCO)C3)nc3ccc(F)cc32)nc1 [Example 433, (R)-6-((2-(4,4-difluoro-3-((2-hydroxyethyl)amino)piperidin-1-yl)-6-fluoro-1H-benzo[d]imidazol-1-yl)methyl)nicotinonitrile] | > 3750 nM
N[C@@H]1CN(c2nc3cc(F)c(F)cc3n2Cc2noc(C3CC3)n2)CC[C@H]1F [Example 578, (3R,4R)-1-(1-((5-cyclopropyl-1,2,4-oxadiazol-3-yl)methyl)-5,6-difluoro-1H-benzo[d]imidazol-2-yl)-4-fluoropiperidin-3-amine] | 251 nM
CN(C)C(=O)C1CCCN(C(=O)Cn2c(N3CC[C@@H](F)[C@H](N)C3)nc3cc(F)c(F)cc32)C1 (stereo partly drawn) [Example 657, 1-(2-(2-((3R,4R)-3-amino-4-fluoropiperidin-1-yl)-5,6-difluoro-1H-benzo[d]imidazol-1-yl)acetyl)-N,N-dimethylpiperidine-3-carboxamide] | > 3750 nM
C[C@H](c1ccc(Cl)cn1)n1c(N2CC[C@@H](F)[C@H](N)C2)nc2ccc(Cl)cc21 [Example 221, (3R,4R)-1-(6-chloro-1-((R)-1-(5-chloropyridin-2-yl)ethyl)-1H-benzo[d]imidazol-2-yl)-4-fluoropiperidin-3-amine hydrochloride] | 54.9 nM
Cc1ccc2nc(N3CC[C@@H](F)[C@H](N)C3)n(Cc3ccc(C#N)cn3)c2c1 [Example 111, 6-((2-((3R,4R)-3-amino-4-fluoro-1-piperidinyl)-6-methyl-1H-benzimidazol-1-yl)methyl)-3-pyridinecarbonitrile] | 0.787 nM
COc1ccc2nc(N3CCC(F)(F)[C@H](N)C3)n(Cc3ccc(C#N)cc3)c2c1 [Example 406, (R)-4-((2-(3-amino-4,4-difluoropiperidin-1-yl)-6-methoxy-1H-benzo[d]imidazol-1-yl)methyl)benzonitrile] | 0.447 nM
N#Cc1ccc(Cn2c(N3CCC(F)(F)[C@H](N)C3)nc3ccc(Cl)cc32)cc1 [Example 405] | 0.708 nM
CS(=O)(=O)c1ccc(Cn2c(N3CC[C@@H](F)[C@H](N)C3)nc3cc(F)cc(F)c32)nc1 [Example 595, (3R,4R)-1-(5,7-difluoro-1-((5-(methylsulfonyl)pyridin-2-yl)methyl)-1H-benzo[d]imidazol-2-yl)-4-fluoropiperidin-3-amine] | > 3750 nM
C[C@H](c1ccc(Cl)cn1)n1c(N2CC[C@@H](F)[C@H](N)C2)nc2cc(Cl)ccc21 [Example 219, (3R,4R)-1-(5-chloro-1-((R)-1-(5-chloropyridin-2-yl)ethyl)-1H-benzo[d]imidazol-2-yl)-4-fluoropiperidin-3-amine hydrochloride] | 15.9 nM
N[C@@H]1CN(c2nc3ccc(F)cc3n2CC(=O)N[C@H]2CCOC2)CC[C@H]1F [Example 675, 2-(2-((3R,4R)-3-amino-4-fluoropiperidin-1-yl)-6-fluoro-1H-benzo[d]imidazol-1-yl)-N-((S)-tetrahydrofuran-3-yl)acetamide] | > 3750 nM
N#Cc1ccc(Cn2c(N3CCC[C@@]4(CCCCN4)C3)nc3ccccc32)nc1 [Example 130, 6-((2-((6S)-1,8-diazaspiro[5.5]undecan-8-yl)-1H-benzimidazol-1-yl)methyl)-3-pyridinecarbonitrile] | 269 nM
N#Cc1ccc2c(c1)CC[C@@H]2n1c(N2CCC[C@H](N)C2)nc2ccccc21 [Example 424, (S)-1-(2-((S)-3-aminopiperidin-1-yl)-1H-benzo[d]imidazol-1-yl)-2,3-dihydro-1H-indene-5-carbonitrile] | 0.707 nM
Cc1nnc(Cn2c(N3CC[C@@H](F)[C@H](N)C3)nc3cc(F)c(F)cc32)n1C [Example 586, (3R,4R)-1-(1-((4,5-dimethyl-4H-1,2,4-triazol-3-yl)methyl)-5,6-difluoro-1H-benzo[d]imidazol-2-yl)-4-fluoropiperidin-3-amine] | 747 nM
N#Cc1ccc2c(c1)nc(N1CC[C@@H](F)[C@H](N)C1)n2Cc1ccc(F)cn1 [Example 191, 2-((3R,4R)-3-amino-4-fluoropiperidin-1-yl)-1-((5-fluoropyridin-2-yl)methyl)-1H-benzo[d]imidazole-5-carbonitrile] | 140 nM
C[C@H](c1ccc(C(F)(F)F)cc1)n1c(N2CC[C@@H](F)[C@H](N)C2)nc2cc(F)c(F)cc21 [Example 336, (3R,4R)-1-(5,6-difluoro-1-((1R)-1-(4-(trifluoromethyl)phenyl)ethyl)-1H-benzimidazol-2-yl)-4-fluoro-3-piperidinamine] | > 3750 nM
COc1ccc2nc(N3CCC[C@@H](N)C3)n(Cc3ccc(C#N)cc3)c2c1 [Example 185, (R)-4-((2-(3-aminopiperidin-1-yl)-6-methoxy-1H-benzo[d]imidazol-1-yl)methyl)benzonitrile] | 3.58 nM
COCCN(C)C(=O)Cn1c(N2CC[C@@H](F)[C@H](N)C2)nc2ccc(F)cc21 [Example 663, 2-(2-((3R,4R)-3-amino-4-fluoropiperidin-1-yl)-6-fluoro-1H-benzo[d]imidazol-1-yl)-N-(2-methoxyethyl)-N-methylacetamide] | 294 nM
N[C@@H]1CN(c2nc3cc(F)c(F)cc3n2Cc2cccc(C(F)(F)F)c2)CC[C@H]1F [Example 365, (3R,4R)-1-(5,6-difluoro-1-(3-(trifluoromethyl)benzyl)-1H-benzimidazol-2-yl)-4-fluoro-3-piperidinamine] | 2960 nM
CN(CCF)C(=O)Cn1c(N2CC[C@@H](F)[C@H](N)C2)nc2cc(F)c(F)cc21 [Example 606, 2-(2-((3R,4R)-3-amino-4-fluoropiperidin-1-yl)-5,6-difluoro-1H-benzo[d]imidazol-1-yl)-N-(2-fluoroethyl)-N-methylacetamide] | 8.06 nM
